Measured values published in the supplement of paper PMC11451515.

Test system: SEM cells
Assay: cell viability relative to DMSO control; higher = less cytotoxic
Settings: 48 h
Method in brief: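 Three leukemia lines were tested: NOMO1 and SEM at 500 cells/well and P12-Ichikawa at 1000 cells/well. Each was adapted for at least four passages in each medium and seeded in 5 μl in 1536-well plates, and library compounds in DMSO were pin-dosed from 47 μM to 0.79 nM in 11 threefold steps. After 48 h at 37°C, CellTiter-Glo One luminescence was read. Viability is a percentage relative to DMSO wells on each plate, with cell-free wells as background.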

[1] = HPLM + 10% dialyzed FBS, 0.000781 µM
[2] = HPLM + 10% dialyzed FBS, 0.00234 µM
[3] = HPLM + 10% dialyzed FBS, 0.00702 µM
[4] = HPLM + 10% dialyzed FBS, 0.0211 µM
[5] = HPLM + 10% dialyzed FBS, 0.0632 µM
[6] = HPLM + 10% dialyzed FBS, 0.19 µM
[7] = HPLM + 10% dialyzed FBS, 0.569 µM
[8] = HPLM + 10% dialyzed FBS, 1.71 µM
[9] = HPLM + 10% dialyzed FBS, 5.12 µM
[10] = HPLM + 10% dialyzed FBS, 15.4 µM
[11] = HPLM + 10% dialyzed FBS, 46.1 µM
[12] = RPMI 5 mM glucose + 10% FBS, 0.000781 µM
[13] = RPMI 5 mM glucose + 10% FBS, 0.00234 µM
[14] = RPMI 5 mM glucose + 10% FBS, 0.00702 µM
[15] = RPMI 5 mM glucose + 10% FBS, 0.0211 µM
[16] = RPMI 5 mM glucose + 10% FBS, 0.0632 µM
[17] = RPMI 5 mM glucose + 10% FBS, 0.19 µM
[18] = RPMI 5 mM glucose + 10% FBS, 0.569 µM
[19] = RPMI 5 mM glucose + 10% FBS, 1.71 µM
[20] = RPMI 5 mM glucose + 10% FBS, 5.12 µM
[21] = RPMI 5 mM glucose + 10% FBS, 15.4 µM
[22] = RPMI 5 mM glucose + 10% FBS, 46.1 µM
[23] = RPMI 5 mM glucose + 10% dialyzed FBS, 0.000781 µM
[24] = RPMI 5 mM glucose + 10% dialyzed FBS, 0.00234 µM
[25] = RPMI 5 mM glucose + 10% dialyzed FBS, 0.00702 µM
[26] = RPMI 5 mM glucose + 10% dialyzed FBS, 0.0211 µM
[27] = RPMI 5 mM glucose + 10% dialyzed FBS, 0.0632 µM
[28] = RPMI 5 mM glucose + 10% dialyzed FBS, 0.19 µM
[29] = RPMI 5 mM glucose + 10% dialyzed FBS, 0.569 µM
[30] = RPMI 5 mM glucose + 10% dialyzed FBS, 1.71 µM
[31] = RPMI 5 mM glucose + 10% dialyzed FBS, 5.12 µM
[32] = RPMI 5 mM glucose + 10% dialyzed FBS, 15.4 µM
[33] = RPMI 5 mM glucose + 10% dialyzed FBS, 46.1 µM

Structure (SMILES) | cell viability [1] | cell viability [2] | cell viability [3] | cell viability [4] | cell viability [5] | cell viability [6] | cell viability [7] | cell viability [8] | cell viability [9] | cell viability [10] | cell viability [11] | cell viability [12] | cell viability [13] | cell viability [14] | cell viability [15] | cell viability [16] | cell viability [17] | cell viability [18] | cell viability [19] | cell viability [20] | cell viability [21] | cell viability [22] | cell viability [23] | cell viability [24] | cell viability [25] | cell viability [26] | cell viability [27] | cell viability [28] | cell viability [29] | cell viability [30] | cell viability [31] | cell viability [32] | cell viability [33]
CC1=CC=C2\N=C/3N(CC[C@@]3(O)C(=O)C2=C1)C4=CC=CC=C4 | 89.5% | 88.6% | 97.7% | 87.3% | 94.5% | 93% | 96.6% | 95% | 70.5% | 85.8% | 93% | 119% | 120% | 98.3% | 120% | 108% | 121% | 97% | 94.9% | 92.4% | 117% | 107% | 86.8% | 83.2% | 85.6% | 95.7% | 92.6% | 76.6% | 101% | 78.3% | 70.8% | 87.2% | 94.5%
Cc1cc(SCc2sc(-c3ccc(C(F)(F)F)cc3)nc2C)ccc1OCC(=O)O | 98.4% | 102% | 98.3% | 113% | 102% | 109% | 113% | 105% | 99.3% | 48.9% | 98.4% | 94.3% | 101% | 89.4% | 102% | 102% | 105% | 100% | 104% | 114% | 57.5% | 93.5% | 99.9% | 101% | 96.1% | 97% | 109% | 92.5% | 102% | 109% | 99.4% | 48.3% | 97.9%
O=[S+]([O-])(O)c1ccc2cc(/N=N/c3cc([S+](=O)([O-])O)c4cccnc4c3O)ccc2c1 | 115% | 120% | 120% | 28.8% | 133% | 132% | 126% | 117% | 120% | 119% | 39.9% | 115% | 124% | 113% | 17.8% | 115% | 114% | 121% | 112% | 103% | 105% | 25.5% | – | – | – | – | – | – | – | – | – | – | –
NC(=O)c1cnc(-c2ccc(C3(N)CCC3)cc2)c(-c2ccccc2)c1 | 110% | 120% | 137% | 111% | 111% | 127% | 133% | 90.7% | 73.2% | 50.3% | 30.9% | 120% | 134% | 123% | 106% | 108% | 127% | 130% | 85.1% | 78% | 43.2% | 24.5% | 121% | 125% | 127% | 120% | 123% | 120% | 133% | 91.5% | 67% | 43.5% | 35.9%
CCOC(CN1C(=O)[C@](CC(=O)Nc2ccc(C)cc2)(NC(=O)Nc2ccc(C)cc2)c2ccccc21)OCC | 117% | 101% | 105% | 120% | 105% | 116% | 114% | 102% | 86.6% | 99.6% | 73.5% | 99% | 98.8% | 113% | 108% | 99.4% | 108% | 119% | 87.7% | 75.9% | 77.3% | 79.9% | 109% | 115% | 100% | 113% | 122% | 113% | 110% | 98.4% | 102% | 105% | 66.5%
